Target: Hypoxia-inducible factor 1-alpha (Homo sapiens, UniProt Q16665)
Experiment: Inhibition of HIF-1alpha in human Hep3B cells cotransfected with pGL3-HRE-luciferase plasmid after 24 hrs by dual-luciferase reporter assay

Hypoxia-inducible factor 1-alpha, sequence (Q16665 whole entry): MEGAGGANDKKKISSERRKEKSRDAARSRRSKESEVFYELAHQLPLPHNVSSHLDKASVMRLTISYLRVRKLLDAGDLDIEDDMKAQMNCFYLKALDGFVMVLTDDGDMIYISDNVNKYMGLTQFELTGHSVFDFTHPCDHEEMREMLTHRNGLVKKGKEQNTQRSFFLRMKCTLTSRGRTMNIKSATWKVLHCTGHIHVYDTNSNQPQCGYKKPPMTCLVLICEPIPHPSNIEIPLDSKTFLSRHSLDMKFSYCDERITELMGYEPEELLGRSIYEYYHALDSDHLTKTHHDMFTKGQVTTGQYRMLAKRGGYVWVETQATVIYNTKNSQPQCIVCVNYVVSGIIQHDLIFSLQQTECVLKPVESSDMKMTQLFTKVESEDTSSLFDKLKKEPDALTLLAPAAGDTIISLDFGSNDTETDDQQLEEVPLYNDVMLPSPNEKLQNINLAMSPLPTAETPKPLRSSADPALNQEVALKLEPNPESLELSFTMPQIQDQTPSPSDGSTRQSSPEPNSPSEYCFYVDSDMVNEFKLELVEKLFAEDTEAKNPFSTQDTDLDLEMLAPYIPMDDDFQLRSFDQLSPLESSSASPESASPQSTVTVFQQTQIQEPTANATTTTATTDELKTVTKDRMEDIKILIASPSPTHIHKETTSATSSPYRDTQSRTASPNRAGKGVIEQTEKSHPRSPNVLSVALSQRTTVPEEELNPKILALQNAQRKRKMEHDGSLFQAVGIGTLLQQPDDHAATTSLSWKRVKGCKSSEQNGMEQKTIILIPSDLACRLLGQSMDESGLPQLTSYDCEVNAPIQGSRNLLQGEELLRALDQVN

**Q.** `CC1(C)Oc2cc3oc(-c4cc(O)cc(O)c4)cc3cc2CC1O` (stereo unspecified) [Moracin P] was tested. Which IC50 did it give?
**A.** 0.65 nM
